Consider 27 compounds from the SangsterLogP compilation.

The structures appear in SMILES notation.

The compound `O=C(NCCCN1CCc2ccccc2C1)C12CC3CC(CC(C3)C1)C2` returned a logP of 5.14. On to `O=C(NCCCCN1CCc2ccccc2C1)C1CC1`, for which the logP was determined as 3.02. Next, `O=C(NCCN1CCc2ccccc2C1)C1CCCCC1`: 3.14; `O=C(NCCN1CCc2ccccc2C1)C1CCC2CCCC21` (configuration not stated): 4.37. The figure for `O=C(NCCCN1CCc2ccccc2C1)C1CCCC1` is 3.45; for `O=C(NCCN1CCc2ccccc2C1)C1CCC1` it is 2.9; for `CC(C)(C)C(=O)NCCN1CCc2ccccc2C1` it is 3.13. The figure for `CC(C)(C)C(=O)NCCCCN1CCc2ccccc2C1` is 3.31; for `O=C(NCCN1CCc2ccccc2C1)C1CC1` it is 2.76. Consider `O=C(NCCN1CCc2ccccc2C1)C12CC3CC(CC(C3)C1)C2`, for which the logP was found to be 4.61. The figure for `O=C(CC1CC2CCC1C2)NCCCCN1CCc2ccccc2C1` (configuration not stated) is 4.58; for `CC(C)C(=O)NCCCN1CCc2ccccc2C1` it is 2.56; for `O=C(CC1CC2CCC1C2)NCCN1CCc2ccccc2C1` (configuration not stated) it is 4.26. Next, `O=C(NCCCN1CCc2ccccc2C1)C1CC1`: 2.75; `CC(=O)NCCCN1CCc2ccccc2C1`: 2.66.

Turning to `O=C(NCCCN1CCc2ccccc2C1)C1CCC2CCCC21` (configuration not stated), the logP came to 4.5. In turn, `CC(C)C(=O)NCCN1CCc2ccccc2C1` showed a logP of 2.87. Next, `O=C(NCCCCN1CCc2ccccc2C1)C12CC3CC(CC(C3)C1)C2`: 4.82.

The compound `CC(C)(C)C(=O)NCCCN1CCc2ccccc2C1` came in with a logP of 3.46. Next, `O=C(NCCN1CCc2ccccc2C1)C1CCCC1`: 3.52; `O=C(NCCCCN1CCc2ccccc2C1)C1CCC1`: 3.3; `O=C(NCCCN1CCc2ccccc2C1)C1CCCCC1`: 3.44. Next, `O=C(NCCCCN1CCc2ccccc2C1)C1CCC2CCCC21` (configuration not stated): 4.46; `CC(=O)NCCCCN1CCc2ccccc2C1`: 2.3. The figure for `CC(=O)NCCN1CCc2ccccc2C1` is 1.83; for `CC(C)C(=O)NCCCCN1CCc2ccccc2C1` it is 2.93.

Turning to `O=C(NCCCN1CCc2ccccc2C1)C1CCC1`, the logP amounted to 3.12.
